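A five-concentration, 48-hour dose response in 96-well plates underlies each endpoint, interpolated linearly between surrounding concentrations. GI50 marks 50% less growth.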 Active and inactive are the calls of the source. Cut-off read from the data, not from the text of the source: active = GI50 up to about 1.1 µM and inactive = higher.
Legend:
Experiment in all cases: DTP human tumour cell line panel, 48 h
KM-20L2 = tested on: KM-20L2
SNB-78 = tested on: SNB-78
HOP-18 = tested on: HOP-18
DMS-273 = tested on: DMS-273
DLD-1 = tested on: DLD-1
RXF 631 = tested on: RXF 631
XF498 = tested on: XF498

Measured: GI50

C=C1C(=O)OC2/C=C(\C)C(O)/C=C\C(C)(O)CC(OC(=O)/C(C)=C/C)C12 (stereo unspecified)
inactive: KM-20L2 13.2 µM | SNB-78 34.2 µM | HOP-18 > 74.8 µM | DMS-273 16.7 µM | DLD-1 13.2 µM | RXF 631 38.2 µM | XF498 29.9 µM

CCOC(=O)C1=C(NC(C)(C)C)OC/C1=N\NC(=O)Cc1ccccc1
inactive: KM-20L2 > 100 µM | SNB-78 > 100 µM | HOP-18 > 100 µM | DMS-273 > 100 µM | DLD-1 > 100 µM | RXF 631 > 100 µM | XF498 > 100 µM

C[N+](C)(C)CC(=O)N/N=C(\C(=O)NC1=C(Cl)C(=O)c2ccccc2C1=O)C(C#N)c1csc(-c2ccc([N+](=O)[O-])cc2)n1 (stereo unspecified)
inactive: KM-20L2 > 100 µM | SNB-78 > 100 µM | HOP-18 > 100 µM | DMS-273 > 100 µM | DLD-1 > 100 µM | RXF 631 > 100 µM | XF498 > 100 µM

— ChEMBL document CHEMBL1201862, “PubChem BioAssay data set” (2004)
